Results published in the supplement of paper PMC10307832.

How the values were obtained:
Experiment in all cases: relative viability (nuclei count vs DMSO), 5 days (fraction); higher = more cells survive
Trametinib + Foretinib = compound: CC(=O)Nc1cccc(-n2c(=O)n(C3CC3)c(=O)c3c(Nc4ccc(I)cc4F)n(C)c(=O)c(C)c32)c1 [Trametinib] + COc1cc2c(Oc3ccc(NC(=O)C4(C(=O)Nc5ccc(F)cc5)CC4)cc3F)ccnc2cc1OCCCN1CCOCC1 [Foretinib] (partner 0.25 µM)
Outline: (§1)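 One day after seeding in 1536-well plates, lung cancer cell lines were dosed by pin tool. Dosing was either single-drug or a fixed anchor-drug dose plus five library-drug doses (not always all listed) in √10 steps. After 5 days, nuclei were stained in one fix-and-stain step and counted on 4× images, and relative viability is the nuclei count of treated wells over that of vehicle wells, given as the median of duplicate plates.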

[1] = compound: CN1C=C(C2=CC=CC=C21)/C=C\3/C4=C(C=CC=N4)NC3=O + COc1cc2c(Oc3ccc(NC(=O)C4(C(=O)Nc5ccc(F)cc5)CC4)cc3F)ccnc2cc1OCCCN1CCOCC1 [Foretinib] (partner 0.25 µM)
Outline: as §1

[2] = compound: CN1C=C(C2=CC=CC=C21)/C=C\3/C4=C(C=CC=N4)NC3=O + N=C(N)NC(=N)NCCc1ccccc1 [Phenformin] (partner 250 µM)
Outline: as §1

[3] = compound: CN1C=C(C2=CC=CC=C21)/C=C\3/C4=C(C=CC=N4)NC3=O + O=C(CCCCCCC(=O)Nc1ccccc1)NO [Vorinostat] (partner 1 µM)
Outline: as §1

Cell Line	relative viability (Trametinib + Foretinib; first compound 0.0025 µM)	relative viability (Trametinib + Foretinib; first compound 0.007906 µM)	relative viability (Trametinib + Foretinib; first compound 0.025 µM)	relative viability (Trametinib + Foretinib; first compound 0.07906 µM)	relative viability (Trametinib + Foretinib; first compound 0.25 µM)	relative viability ([1]; first compound 0.02 µM)	relative viability ([1]; first compound 0.06325 µM)	relative viability ([1]; first compound 0.2 µM)	relative viability ([1]; first compound 0.6325 µM)	relative viability ([1]; first compound 2 µM)	relative viability ([2]; first compound 0.02 µM)	relative viability ([2]; first compound 0.06325 µM)	relative viability ([2]; first compound 0.2 µM)	relative viability ([2]; first compound 0.6325 µM)	relative viability ([2]; first compound 2 µM)	relative viability ([3]; first compound 0.02 µM)	relative viability ([3]; first compound 0.06325 µM)	relative viability ([3]; first compound 0.2 µM)	relative viability ([3]; first compound 0.6325 µM)	relative viability ([3]; first compound 2 µM)
NCI-H1355	0.993	0.725	0.519	0.606	0.488	0.957	0.893	0.958	0.772	0.766	0.439	0.388	0.398	0.358	0.434	0.581	0.581	0.653	0.513	0.534
COR-L23	1.05	1.04	0.953	0.777	0.45	1.11	1.04	0.92	1.1	1.08	0.429	0.396	0.394	0.48	0.441	0.452	0.433	0.42	0.479	0.396
A-427	1	0.747	0.619	0.517	0.448	1.18	1.21		0.958	1.1	0.261	0.309		0.275	0.348	0.89	0.845		0.901	0.813
NCI-H520	0.874	0.785	0.866	0.739	0.585	0.639	0.773	0.847	0.717	0.937	0.453	0.503	0.54	0.669	0.533	0.797	0.482	0.661	0.718	0.722
LXF-289	0.956	0.863	0.77	0.661	0.595	0.943	0.957	1.04	1.05	0.977	0.478	0.515	0.467	0.551	0.522	0.693	0.828	0.689	0.817	0.801
NCI-H2087	0.803	0.488	0.343	0.211	0.205	1.05	1.11	1.3	1.04	1.04	0.488	0.431	0.387	0.453	0.369	0.73	0.603	0.551	0.753	0.838
CAL-12T	0.969	0.893	0.716	0.499	0.489	1.08	1.03	1.08	1.08	1.03	0.507	0.537	0.613	0.612	0.601	0.652	0.675	0.703	0.873	0.679
NCI-H596	0.793	0.596	0.709	0.69	0.396	0.963	0.89	0.871	0.742	0.855	0.858	0.67	0.619	0.698	0.709	0.642	0.653	0.484	0.589	0.595
PC-14	0.911	0.823	0.809	0.885	0.693	0.993	0.975	1.04	0.959	1.01	0.54	0.482		0.575	0.447	0.759	0.583	0.728	0.674	0.744
NCI-H1915	1.11	0.781	0.538	0.596	0.298	1.09	1.15	1.14	1.18	1.18	0.331	0.361	0.365	0.347	0.36	0.502	0.501	0.513	0.442	0.493
NCI-H647	1.35	1.08	0.963	0.911	0.4	1.24	1.24	1.04	1.17	1.01	0.387	0.387	0.343	0.479	0.528	0.498	0.529	0.676	0.524	0.531
NCI-H322M	0.813	0.769	0.677	0.59	0.498	0.905	0.993	0.887	0.946	1.12	0.689	0.769	0.642	0.838	0.777	0.855	0.821	0.712	0.904	0.828
NCI-H2170	0.973	0.539	0.968	0.963	0.87	1.02	1.03	1.03	0.94	1.04	0.354	0.366	0.327	0.405	0.4	0.746	0.762	0.747	0.614	0.758
BEN	0.757	0.727	0.302	0.408	0.499	0.66	0.742		0.483	0.484	0.264	0.29		0.255	0.242	0.547	0.541	0.571	0.636	0.574
NCI-H2009	1.05	0.708	0.351	0.279	0.302	1.22	1.19	1.19	1.24	1.24	0.486	0.518	0.509	0.502	0.513	0.69	0.671	0.748	0.766	0.683
LC-2-ad	0.792	0.726	0.57	0.477	0.409	0.901	0.843	0.864	1.03	0.931	0.595	0.546	0.414	0.537	0.549	0.67	0.661	0.666	0.706	0.669
NCI-H1437	1.24	1.06	0.754	0.664	0.588	1.34	1.22	1.34	1.31	1.3	0.307	0.325	0.231	0.28	0.267	0.955	0.823	0.857	0.804	0.71

Cell Line	relative viability (Trametinib + Foretinib; first compound 0.0025 µM)	relative viability (Trametinib + Foretinib; first compound 0.007906 µM)	relative viability (Trametinib + Foretinib; first compound 0.025 µM)	relative viability (Trametinib + Foretinib; first compound 0.07906 µM)	relative viability (Trametinib + Foretinib; first compound 0.25 µM)	relative viability ([1]; first compound 0.02 µM)	relative viability ([1]; first compound 0.06325 µM)	relative viability ([1]; first compound 0.2 µM)	relative viability ([1]; first compound 0.6325 µM)	relative viability ([1]; first compound 2 µM)	relative viability ([2]; first compound 0.02 µM)	relative viability ([2]; first compound 0.06325 µM)	relative viability ([2]; first compound 0.2 µM)	relative viability ([2]; first compound 0.6325 µM)	relative viability ([2]; first compound 2 µM)	relative viability ([3]; first compound 0.02 µM)	relative viability ([3]; first compound 0.06325 µM)	relative viability ([3]; first compound 0.2 µM)	relative viability ([3]; first compound 0.6325 µM)	relative viability ([3]; first compound 2 µM)
NCI-H3122	0.895	0.769	0.293	0.251	0.159	0.857	0.941	0.907	1.06	1.04	0.347	0.333		0.375	0.355	0.767	1.06	0.734	1.02	1
NCI-H727	0.455	0.269	0.359	0.32	0.238	0.7	0.664	0.878	0.817	0.665	0.414	0.448	0.442	0.586	0.528	1.02	1.21	0.903	1.23	1.35
NCI-H1734	0.968	0.781	0.582	0.607	0.446	0.928	0.875		0.904	1.03	0.412	0.354		0.376	0.373	0.73	0.712		0.796	0.747
HCC-15	0.75	0.559	0.343	0.244	0.201	0.947	0.935	1.03	1.01	0.998	0.422	0.462	0.486	0.448	0.463	0.915	0.824	0.867	0.74	0.706
NCI-H2405	1.08	0.874	0.903	0.72	0.563	1.04	1.03	0.896	1.01	1.05	0.416	0.381	0.366	0.328	0.4	1.16	0.913	0.754	0.98	0.73
NCI-H1993	0.657	0.616	0.678	0.663	0.661	0.665	0.739	0.72	0.788	0.688	0.544	0.432	0.431	0.55	0.509	0.837	0.736	0.647	0.622	0.6
NCI-H1650	1.18	0.857	0.894	0.838	0.506	1.21	1.05	0.98	1.26	1.22	0.401	0.451	0.362	0.345	0.397	0.548	0.532	0.566	0.549	0.554
NCI-H460	0.942	0.816	0.549	0.21	0.11	1.09	0.967	1.05	0.986	0.975	0.553	0.526	0.52	0.56	0.571	0.958	0.655	0.685	0.37	0.545
NCI-H1651	0.773	0.687	0.702	0.652	0.671	0.809	0.803	0.894	0.891	0.812	0.377	0.344	0.305	0.327	0.397	0.656	0.573	0.571	0.563	0.537
NCI-H1975	0.973	0.87	0.839	0.334	0.385	0.87	0.918	0.83	0.697	0.837	0.392	0.378	0.318	0.389	0.402	0.775	0.745	0.708	0.725	0.668
NCI-H2126	1.01	1.05	0.994	1	0.816	1.13	1.12	1.22	0.867	1.11	0.506	0.508	0.507	0.519	0.505	0.876	0.719	0.744	0.748	0.802
201T	1.05	1	1.02	0.815	0.715	1.27	1	0.983	0.773	0.713	0.434	0.451	0.429	0.394	0.422	1.04	0.879	1.03	1.04	1.05
HCC-78	0.515	0.392	0.513	0.443	0.403	0.545	0.554		0.509	0.552	0.545	0.709		0.525	0.614	0.431	0.46	0.381	0.424	0.427
NCI-H358	0.49	0.302	0.264	0.18	0.166	0.693	0.622	0.815	0.637	0.687	0.301	0.316	0.311	0.4	0.4	0.764	0.535	0.672	1.21	0.51
SK-LU-1	0.649	0.697	0.505	0.406	0.208	0.596	0.705	0.869	0.713	0.992	0.409	0.41	0.444	0.524	0.646	0.67	0.764	0.729	0.727	0.831
H3255	0.794	0.857	0.501	0.728	0.509	1.26	0.954	0.72	0.742	0.899	0.384	0.36	0.341	0.327	0.366	1.03		0.876	0.749	0.774
